The experiment deals with rats. Kind of experiment: Action against extinction of a practice of active avoiding a negative reinforcement (conditional avoidance response, deWeid apparatus). Particulars: subcutaneous, phosphate-zinc complex, percent relative to conditional responses in first extinction test before treatment; for % of conditional response in course of extinction period after 2 hours: 2 hours after injection, untreated control 60; for % of conditional response in course of extinction period after 4 hours: 4 hours after injection, untreated control 30. The experiment is classed as in vivo. On the procedure:
The action against extinction of a practice of active avoiding a negative reinforcement was determined using an apparatus described by deWeid (Proc. Soc. Ex. Biol. Med.,) Vol. 122 ([…]) p. 28). The practice is effected in a box equipped with a 60 W lamp (conditional stimulus: CS), a mat and an electrifiable floor connected to an electric stimulus which permits the delivery of a painful shock of 75 volts (unconditional stimulus US). The conditional stimulus is present only for 5 seconds, then is associated with an unconditional stimulus just as the animal grips the mat realizing as well the avoidance response desired. The conditional response is acquired when the animal responds to the conditional stimulus.
10 tests at 60 second intervals were effected daily for 3 days and examination of the extinction of the practice realized with suppression of the unconditional stimulus is followed on the 4th day with 3 tests at 2 hour intervals with the animals presenting at least 7 conditional responses.
The compounds were injected subcutaneously as a phosphate-zinc complex before the first test of extinction of practice to group of 5 rats and the results were compared with an untreated control group of rats. The evolution of the conditional response in the course of the period of extinction of practice 2 and 4 hours after the injection of the compound is expressed as the percent of variation with respect to the number of conditional responses observed in the first test of extinction before treatment.

As to “Acetate of cyclic disulide (1→4) of N-[Cysteinylalanylanylcysteinyl-D-lysyl]-phenylalanine [Example 2]”, the “% of conditional response in course of extinction period after 2 hours” value (shortened to “% of conditional response … after 2 hours”) is 59% (dose 1 μg/rat) and 71% (dose 10 μg/rat). Besides, the “% of conditional response in course of extinction period after 4 hours” value (“% of conditional response … after 4 hours” for short) is 35% (dose 1 μg/rat) and 75% (dose 10 μg/rat).

In the case of “Cyclic disulfide (1→4) of N-[cysteinylglutamylhistidylcysteinyl-D-lysyl]-phenylalanine [Example 3]”, where the note is “dose 1 μg/rat”, the “% of conditional response … after 2 hours” value amounted to 75% and the “% of conditional response … after 4 hours” value amounted to 29%. Where the note is “dose 10 μg/rat”, the “% of conditional response … after 2 hours” value is 70% and the “% of conditional response … after 4 hours” value is reported as 50%.

Take “Acetate of cyclic disulfide (1→6) of N-[cysteinylalanylalanylphenylalanyl-D-lysyl]-cysteine [Example 1]”: under “dose 1 μg/rat”, the “% of conditional response … after 2 hours” value was found to be 51% and the “% of conditional response … after 4 hours” value is 49%. Also, under “dose 10 μg/rat”, the “% of conditional response … after 2 hours” value is listed as 76% and the “% of conditional response … after 4 hours” value worked out at 71%.
